Reference: patent US11786503B2, “Pharmaceutical compositions and methods for countering chemotherapy induced cardiotoxicity” (Auransa Inc., priority 2016, dated 2023)
Like-named read-outs stand apart in the source and are kept apart here.

Experiments:
TOPOIIβ = target: T1, TOPOIIβ (Homo sapiens, UniProt Q02880); assay: kDNA decatenation assay, TOPOIIβ; assay type: biochemical; conditions: for TOPOIIβ inhibition, in words: decatenation assay;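 for all read-outs here: kinetoplast DNA incubated with one unit of TOPOIIβ at 37 °C for 30 min, decatenated product resolved on 1% agarose gel, inhibition scored from relative band intensity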
T1 construct: purchased Inspiralis
T1 sequence (Q02880 whole entry): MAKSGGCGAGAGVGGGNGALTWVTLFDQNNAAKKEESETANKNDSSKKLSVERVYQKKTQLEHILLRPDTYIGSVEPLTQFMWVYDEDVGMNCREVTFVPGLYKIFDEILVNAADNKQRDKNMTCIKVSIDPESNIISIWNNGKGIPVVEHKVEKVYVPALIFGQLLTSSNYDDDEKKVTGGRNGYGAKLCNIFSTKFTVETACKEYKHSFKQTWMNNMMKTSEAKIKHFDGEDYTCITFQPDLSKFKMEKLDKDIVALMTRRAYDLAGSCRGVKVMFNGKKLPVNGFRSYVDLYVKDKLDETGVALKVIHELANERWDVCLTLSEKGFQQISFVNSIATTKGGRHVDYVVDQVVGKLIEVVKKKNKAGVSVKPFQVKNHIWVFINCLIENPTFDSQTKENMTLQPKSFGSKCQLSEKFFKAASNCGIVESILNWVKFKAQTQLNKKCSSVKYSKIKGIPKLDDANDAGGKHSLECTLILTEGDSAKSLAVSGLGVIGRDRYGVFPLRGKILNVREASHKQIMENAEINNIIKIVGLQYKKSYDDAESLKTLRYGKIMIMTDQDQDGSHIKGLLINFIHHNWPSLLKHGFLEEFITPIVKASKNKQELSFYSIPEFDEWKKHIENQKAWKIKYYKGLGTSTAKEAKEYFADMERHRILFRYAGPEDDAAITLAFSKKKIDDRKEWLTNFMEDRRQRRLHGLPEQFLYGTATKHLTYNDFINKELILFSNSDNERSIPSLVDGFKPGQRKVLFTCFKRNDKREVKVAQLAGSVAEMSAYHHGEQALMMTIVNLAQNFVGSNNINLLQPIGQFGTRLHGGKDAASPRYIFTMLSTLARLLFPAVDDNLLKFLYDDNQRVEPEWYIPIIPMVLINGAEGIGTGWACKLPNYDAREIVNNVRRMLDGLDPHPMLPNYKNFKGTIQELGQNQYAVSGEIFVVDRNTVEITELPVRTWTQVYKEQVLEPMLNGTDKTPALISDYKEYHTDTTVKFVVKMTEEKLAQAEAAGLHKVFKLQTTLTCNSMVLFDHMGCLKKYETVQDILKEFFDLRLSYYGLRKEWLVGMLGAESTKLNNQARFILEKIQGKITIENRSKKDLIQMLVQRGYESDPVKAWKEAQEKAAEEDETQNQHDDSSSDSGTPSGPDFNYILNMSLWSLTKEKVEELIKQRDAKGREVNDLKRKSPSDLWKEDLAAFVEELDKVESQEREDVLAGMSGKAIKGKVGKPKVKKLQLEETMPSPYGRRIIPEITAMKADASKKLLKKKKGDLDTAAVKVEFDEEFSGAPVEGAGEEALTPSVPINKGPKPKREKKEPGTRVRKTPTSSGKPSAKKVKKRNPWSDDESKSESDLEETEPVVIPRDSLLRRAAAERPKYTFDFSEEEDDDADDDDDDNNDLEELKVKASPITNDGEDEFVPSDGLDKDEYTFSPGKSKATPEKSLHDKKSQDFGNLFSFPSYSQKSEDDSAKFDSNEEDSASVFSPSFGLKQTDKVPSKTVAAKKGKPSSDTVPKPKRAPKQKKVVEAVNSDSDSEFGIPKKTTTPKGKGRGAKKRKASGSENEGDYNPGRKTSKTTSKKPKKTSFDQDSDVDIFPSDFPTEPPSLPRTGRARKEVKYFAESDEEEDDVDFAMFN

TOPOIIα = target: T2, TOPOIIα (Homo sapiens, UniProt P11388); assay: kDNA decatenation assay, TOPOIIα; assay type: biochemical; conditions: for TOPOIIα inhibition, in words: decatenation assay;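 for all read-outs here: kDNA incubated with one unit of TOPOIIα at 37 °C for 30 min, decatenated product resolved on 1% agarose gel, inhibition from relative band intensity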
T2 construct: purchased Inspiralis
T2 sequence (P11388 whole entry): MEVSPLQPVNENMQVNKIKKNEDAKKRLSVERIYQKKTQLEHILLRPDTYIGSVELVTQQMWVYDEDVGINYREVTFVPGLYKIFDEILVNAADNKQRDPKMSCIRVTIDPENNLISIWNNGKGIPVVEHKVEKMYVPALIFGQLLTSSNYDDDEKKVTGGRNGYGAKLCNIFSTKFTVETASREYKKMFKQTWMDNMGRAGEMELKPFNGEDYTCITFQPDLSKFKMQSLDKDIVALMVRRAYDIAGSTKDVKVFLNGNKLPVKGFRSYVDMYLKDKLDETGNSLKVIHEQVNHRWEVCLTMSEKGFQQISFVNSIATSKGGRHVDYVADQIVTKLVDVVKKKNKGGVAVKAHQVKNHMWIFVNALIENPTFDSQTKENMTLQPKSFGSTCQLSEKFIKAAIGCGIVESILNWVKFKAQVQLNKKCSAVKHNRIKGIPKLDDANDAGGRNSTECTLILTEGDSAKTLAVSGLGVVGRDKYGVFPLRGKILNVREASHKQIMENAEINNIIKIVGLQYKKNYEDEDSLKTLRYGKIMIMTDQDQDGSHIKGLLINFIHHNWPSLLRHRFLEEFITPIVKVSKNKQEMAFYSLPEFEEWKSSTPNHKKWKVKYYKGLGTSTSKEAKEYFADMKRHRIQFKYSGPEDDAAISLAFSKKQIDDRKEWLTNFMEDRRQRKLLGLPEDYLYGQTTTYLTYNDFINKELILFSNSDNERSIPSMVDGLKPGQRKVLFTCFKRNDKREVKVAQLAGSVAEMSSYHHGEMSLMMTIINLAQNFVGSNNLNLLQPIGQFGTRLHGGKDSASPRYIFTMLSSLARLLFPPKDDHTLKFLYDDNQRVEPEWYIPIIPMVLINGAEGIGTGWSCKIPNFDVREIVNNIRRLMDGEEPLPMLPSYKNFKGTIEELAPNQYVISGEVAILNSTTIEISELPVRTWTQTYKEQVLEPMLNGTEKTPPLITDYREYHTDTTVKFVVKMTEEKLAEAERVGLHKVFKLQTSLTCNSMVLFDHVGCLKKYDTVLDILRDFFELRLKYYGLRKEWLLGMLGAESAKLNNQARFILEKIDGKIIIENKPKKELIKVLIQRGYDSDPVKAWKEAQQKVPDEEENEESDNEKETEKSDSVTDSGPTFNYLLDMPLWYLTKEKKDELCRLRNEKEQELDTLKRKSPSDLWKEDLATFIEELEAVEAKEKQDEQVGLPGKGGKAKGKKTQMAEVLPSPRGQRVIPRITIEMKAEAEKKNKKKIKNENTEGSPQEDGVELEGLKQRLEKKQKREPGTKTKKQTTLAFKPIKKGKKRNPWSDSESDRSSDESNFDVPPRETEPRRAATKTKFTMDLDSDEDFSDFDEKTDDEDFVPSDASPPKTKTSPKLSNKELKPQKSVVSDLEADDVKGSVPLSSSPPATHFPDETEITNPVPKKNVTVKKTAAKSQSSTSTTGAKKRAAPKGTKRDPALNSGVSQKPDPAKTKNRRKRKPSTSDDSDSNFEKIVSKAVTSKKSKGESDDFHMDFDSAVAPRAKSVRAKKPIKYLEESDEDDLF

[1] = tested on: Doxorubicin treated human iPSC-derived cardiomyocytes; assay: iPSC-CM protection by myricetin analogs (Table 1); assay type: cell-based; conditions: for cardioprotection, in words: Table 1
cardiomyocytes = assay: cytotoxicity of myricetin analogs to cardiomyocytes (Table 1, Toxicity)
[2] = read-out: iPSC-CM protection EC50
[3] = approximate, read-out: EC50 for cardioprotection
[4] = Homo sapiens, iPSC-CM, read-out: iPSC-CM protection EC50
[5] = Homo sapiens, iPSC-CM, read-out: iPSC-CM protection Max Effect (%)
[6] = Homo sapiens, iPSC-CM, initial screen at 10 μM or 100 μM, read-out: iPSC-CM protection Max Effect (%), class symbol
[7] = initial screen at 10 μM or 100 μM
[8] = Homo sapiens, iPSC-CM, read-out: iPSC-CM protection Max Effect (%), class symbol

Row | Structure (SMILES) | TOPIIβ Inhibition (TOPOIIβ) | TOPIIα Inhibition (TOPOIIα) | Rescue [1] | Emax [1, 6] | also measured
1 | O=C1c2ccc(O)cc2OC(c2cc(O)c(O)c(O)c2)C1O (stereo in doubt) [Compound 30, dihydrorobinetin] | − | − |  |  | TOPOIIβ inhibition, in words (TOPOIIβ): no inhibitory activity; TOPOIIα inhibition, in words (TOPOIIα): no inhibitory activity; iPSC-CM protection Max Effect (%) [1]: 53%; EC50 [1, 2]: 14 µM
2 | O=c1c(O)c(-c2ccccc2)oc2cc(O)cc(O)c12 [3,5,7-trihydroxyflavone] |  |  |  |  | TOPOIIβ inhibition, in words (TOPOIIβ): neither cardioprotection nor TOPOII inhibition; TOPOIIα inhibition, in words (TOPOIIα): neither cardioprotection nor TOPOII inhibition; cytotoxicity, in words (cardiomyocytes; at 100 μM where stated, Table 1): generalized cytotoxicity; cardioprotection, in words [1]: neither cardioprotection nor TOPOII inhibition
3 | COc1ccc2c(=O)c(OC)c(-c3cc(OC)c(OC)c(OC)c3)oc2c1 [3,7,3′,4′,5′-O-pentamethylrobinetin] |  |  |  |  | TOPOIIβ inhibition, in words (TOPOIIβ): entirely failed to display cardioprotection or TOPOII inhibition; TOPOIIα inhibition, in words (TOPOIIα): entirely failed to display cardioprotection or TOPOII inhibition; cardioprotection, in words [1]: entirely failed to display cardioprotection or TOPOII inhibition
4 | COc1cc(-c2oc3cc(O)cc(O)c3c(=O)c2O)cc(OC)c1OC [3′,4′,5′-O-trimethylmyricetin] |  |  |  |  | TOPOIIβ inhibition, in words (TOPOIIβ): entirely failed to display cardioprotection or TOPOII inhibition; TOPOIIα inhibition, in words (TOPOIIα): entirely failed to display cardioprotection or TOPOII inhibition; cardioprotection, in words [1]: entirely failed to display cardioprotection or TOPOII inhibition
5 | O=c1cc(-c2cc(O)c(O)c(O)c2)oc2ccccc12 [3′,4′,5′-trihydroxyflavone] |  |  |  |  | EC50 ([1]; Homo sapiens, Cardiomyocyte, read-out: potency for cardioprotection): ≥ 30 µM
6 | COc1cc(-c2oc3cc(O)cc(O)c3c(=O)c2O)cc(OC)c1O [3′,5′-O-dimethylmyricetin] |  |  |  |  | TOPOIIβ inhibition, in words (TOPOIIβ): neither cardioprotection nor TOPOIIα and TOPOIIβ inhibition; TOPOIIα inhibition, in words (TOPOIIα): neither cardioprotection nor TOPOIIα and TOPOIIβ inhibition; cardioprotection, in words [1]: neither cardioprotection nor TOPOIIα and TOPOIIβ inhibition
7 | COc1cc(-c2oc3cc(O)cc(O)c3c(=O)c2O)cc(O)c1O [3′-O-methylmyricetin] |  |  |  |  | TOPOIIβ inhibition, in words (TOPOIIβ): failed to inhibit; TOPOIIα inhibition, in words (TOPOIIα): failed to inhibit; cardioprotection, in words [1]: conferred cardioprotection; EC50 [1, 3]: ~59 µM
8 | COc1c(O)cc(-c2oc3cc(O)cc(O)c3c(=O)c2O)cc1O [4′-O-methylmyricetin] |  |  |  |  | TOPOIIβ inhibition, in words (TOPOIIβ): without TOPOII inhibition; TOPOIIα inhibition, in words (TOPOIIα): without TOPOII inhibition; cardioprotection, in words [1]: conferred cardioprotection; EC50 [1, 3]: ~48.7 µM
9 | COc1ccc2c(=O)c(O)c(-c3cc(OC)c(OC)c(OC)c3)oc2c1 [7,3′,4′,5′-O-tetramethylrobinetin] |  |  |  |  | TOPOIIβ inhibition, in words (TOPOIIβ): entirely failed to display cardioprotection or TOPOII inhibition; TOPOIIα inhibition, in words (TOPOIIα): entirely failed to display cardioprotection or TOPOII inhibition; cardioprotection, in words [1]: entirely failed to display cardioprotection or TOPOII inhibition
10 | O=c1c(O)c(-c2ccc(O)c(O)c2)oc2cc(O)ccc12 [Compound 5, 3,7,3′,4′-tetrahydroxyflavone] |  |  |  |  | EC50 [1, 4]: 16.3 µM; Emax [1, 5]: 36%
11 | O=c1cc(-c2ccc(O)c(O)c2)oc2cc(O)cc(O)c12 [Compound 9, 5,7,3′,4′-tetrahydroxyflavone] | − | − |  |  | EC50 [1, 4]: 9.67 µM; Emax [1, 5]: 62%
12 | O=c1cc(-c2ccc(O)c(O)c2)oc2cc(O)ccc12 [Compound 11, 7,3′,4′-trihydroxyflavone] | − | − | + |  | EC50 [1, 4]: 6.25 µM; Emax [1, 5]: 24%
13 | O=c1c(O)c(-c2ccc(O)c(O)c2)oc2ccccc12 [Compound 12, 3,3′,4′-trihydroxyflavone] | − | − | + |  | EC50 [1, 4]: 6.43 µM; Emax [1, 5]: 16%
14 | O=c1cc(-c2ccc(O)cc2)oc2cc(O)cc(O)c12 [Compound 13, 5,7,4′,-trihydroxyflavone] |  |  | − | < 30% | 
15 | O=c1cc(-c2ccc(O)c(O)c2)oc2ccccc12 [Compound 14, 3′,4′-dihydroxyflavone] |  |  | − | < 30% | 
16 | O=c1cc(-c2ccc(O)cc2)oc2cc(O)ccc12 [Compound 15, 7,4′-dihydroxyflavone] |  |  | − | < 30% | 
17 | O=c1c(O)c(-c2ccc(O)cc2)oc2ccccc12 [Compound 16, 3,4′-dihydroxyflavone] |  |  | − | < 30% | 
18 | O=c1cc(-c2ccc(O)cc2)oc2ccccc12 [Compound 17, 4′-hrydroxyflavone] |  |  | − |  | iPSC-CM protection Max Effect (%), class symbol [1, 7]: † (Compounds failed to exhibit >30% protection Max Effect at 10 μM or 100 μM on initial screen.)
19 | O=c1c(O)c(-c2cccc(O)c2)oc2cc(O)ccc12 [Compound 18, 3,7,3′-trihydroxyflavone] |  |  | − | < 30% | 
20 | O=c1c(O)c(-c2ccccc2)oc2cc(O)cc(O)c12 [Compound 19, 3,5,7-trihydroxyflavone] |  |  | − | < 30% | 

Row | Structure (SMILES) | TOPIIβ Inhibition (TOPOIIβ) | TOPIIα Inhibition (TOPOIIα) | Rescue [1] | Emax [1, 6] | also measured
21 | O=c1c(O)c(-c2ccccc2)oc2cc(O)ccc12 [Compound 20, 3,7-dihydroxyflavone] |  |  | − |  | 
22 | O=c1cc(-c2cccc(O)c2)oc2cc(O)ccc12 [Compound 21, 7,3′-dihydroxyflavone] |  |  | − | < 30% | 
23 | O=c1c(O)c(-c2cccc(O)c2)oc2ccccc12 [Compound 22, 3,3′-dihydroxyflavone] |  |  | − | < 30% | 
24 | O=c1cc(-c2ccccc2)oc2cc(O)cc(O)c12 [Compound 23, 5,7-dihydroxyflavone] |  |  | − | < 30% | 
25 | O=c1cc(-c2ccccc2)oc2cc(O)ccc12 [Compound 24, 7-hydroxyflavone] |  |  | − |  | Emax [1, 8]: < 30%
26 | O=c1c(O)c(-c2ccccc2)oc2ccccc12 [Compound 25, 3-hydroxyflavone] |  |  | − | < 30% | 
27 | O=c1cc(-c2cc(O)cc(O)c2)oc2ccccc12 [Compound 26, 3′,5′-dihydroxyflavone] |  |  | − |  | Emax [1, 8]: < 30%
28 | O=c1cc(-c2cccc(O)c2)oc2ccccc12 [Compound 27, 3′-hydroxyflavone] |  |  | − | < 30% | 
29 | O=c1cc(-c2ccccc2)oc2ccccc12 [Compound 28, flavone] |  |  | − | < 30% | 
30 | O=c1ccoc2ccccc12 [Compound 29, chromone] |  |  | − | < 30% | Toxicity (cardiomyocytes; * = cytotoxicity at 100 μM): −
31 | COc1cc(-c2oc3cc(O)cc(O)c3c(=O)c2O)cc(O)c1O [Compound 31, 3′-O-methylmyricetin] | − | − | + |  | iPSC-CM protection Max Effect (%) [1]: 76%; EC50 [1, 2]: 58.7 µM
32 | COc1c(O)cc(-c2oc3cc(O)cc(O)c3c(=O)c2O)cc1O [Compound 32, 4′-O-methylmyricetin] | − | − | + |  | iPSC-CM protection Max Effect (%) [1]: 68%; EC50 [1, 2]: 48.6 µM
33 | COc1cc(-c2oc3cc(O)cc(O)c3c(=O)c2O)cc(OC)c1O [Compound 33, 3′,5′-O-dimethylmyricetin] | − | − | − |  | iPSC-CM protection Max Effect (%), class symbol [1, 7]: † (Compounds failed to exhibit >30% protection Max Effect at 10 μM or 100 μM on initial screen.)
34 | COc1cc(-c2oc3cc(O)cc(O)c3c(=O)c2O)cc(OC)c1OC [Compound 34, 3′,4′,5′-O-trimethylmyricetin] | − | − | − |  | iPSC-CM protection Max Effect (%), class symbol [1, 7]: † (Compounds failed to exhibit >30% protection Max Effect at 10 μM or 100 μM on initial screen.)
35 | COc1cc(-c2oc3cc(O)ccc3c(=O)c2O)cc(OC)c1OC [Compound 35, 3',4',5'-O-trimethylrobinetin] | − | − | − |  | TOPOIIβ inhibition, in words (TOPOIIβ): entirely failed to display cardioprotection or TOPOII inhibition; TOPOIIα inhibition, in words (TOPOIIα): entirely failed to display cardioprotection or TOPOII inhibition; cardioprotection, in words [1]: entirely failed to display cardioprotection or TOPOII inhibition; iPSC-CM protection Max Effect (%), class symbol [1, 7]: † (Compounds failed to exhibit >30% protection Max Effect at 10 μM or 100 μM on initial screen.)
36 | COc1ccc2c(=O)c(O)c(-c3cc(OC)c(OC)c(OC)c3)oc2c1 [Compound 36, 7,3′,4′,5′-O-tetramethylrobinetin] | − | − | − |  | iPSC-CM protection Max Effect (%), class symbol [1, 7]: † (Compounds failed to exhibit >30% protection Max Effect at 10 μM or 100 μM on initial screen.)
37 | COc1ccc2c(=O)c(OC)c(-c3cc(OC)c(OC)c(OC)c3)oc2c1 [Compound 37, 3,7,3′,4′,5′-O-pentamethylrobinetin] | − | − | − |  | iPSC-CM protection Max Effect (%), class symbol [1, 7]: † (Compounds failed to exhibit >30% protection Max Effect at 10 μM or 100 μM on initial screen.)
38 | O=c1ccoc2cc(O)ccc12 [Compound 38, 7-hydroxy-4-chromone] | − | − | − | < 30% | 
39 | O=c1ccoc2ccccc12 [chromone] |  |  |  |  | TOPOIIβ inhibition, in words (TOPOIIβ): Nor did either compound confer TOPOIIβ or a inhibition; TOPOIIα inhibition, in words (TOPOIIα): Nor did either compound confer TOPOIIβ or a inhibition; cardioprotection, in words [1]: no positive effect
